Experimental data: patent publication US7091189B2, “Medicament for treating lung cancer” (Dainippon Sumitomo Pharma Co., Ltd., priority 2002, dated 2006)
Counter-ions that a name gives are not always drawn. Like-named read-outs stand apart in the source and are kept apart here.

Assays:
[1] = humans, cited from earlier work
[2] = mice, cited from earlier work
[3] = tested on: human squamous cell lung carcinoma QC-56 cell strain; experiment: Antitumor activity in nude mice with transplanted QC-56 (amrubicin hydrochloride and vinorelbine); type: in vivo; conditions: single agent at maximum tolerated dose (amrubicin hydrochloride 25 mg/kg; vinorelbine 16 mg/kg)
Procedure: (§1) Human small cell lung cancer LX-1 cell strain was subcutaneously transplanted to nude mice (59 animals) at 6 weeks of age. After 11 days from the tumor transplantation, 36 animals having a tumor volume of about 100 to 300 mm^3 were allotted to 6 groups consisting of 6 animals per group. […] Thereafter, tumor volume and body weight of the mice were measured for 23 days.
(§2) Minimum T/C %: the minimum value of ratio (%) of tumor growth rate^*) for respective administration groups to tumor growth rate^*) for the vehicle administration group within the period for measurement. ^*)Tumor growth rate: a ratio of an average value of tumor volume for a group of 6 animals at respective point in time of measurement to an average value of tumor volume for a group of 6 animals at respective point in time of drug administration.
(§3) Antitumor activity by a combination of amrubicin hydrochloride and vinorelbine was tested in the same way as Example 1, except that human squamous cell lung carcinoma QC-56 cell strain was used in place of human small cell lung cancer LX-1 cell strain and that the maximum tolerated dose of vinorelbine was set at 16 mg/kg. Vinorelbine was administered by giving 16, 12.8 or 8 ml/kg aliquot of Navelbine Injection (containing 10 mg/ml), purchased from Kyowa Hakko Kogyo Co., Ltd., as the maximum tolerated dose, the 0.8 times dose or the 0.5 times dose of vinorelbine. In addition, nude mice (100 animals) at 5 weeks of age were used.

[4] = tested on: Human small cell lung cancer LX-1 cell strain; experiment: Antitumor activity in nude mice with subcutaneously transplanted LX-1 (amrubicin hydrochloride and irinotecan); type: in vivo; conditions: single agent at maximum tolerated dose, intravenous (amrubicin hydrochloride 25 mg/kg; irinotecan 120 mg/kg), tumor volume measured for 23 days
[5] = tested on: human squamous cell lung carcinoma QC-56 cell strain; experiment: Antitumor activity in nude mice with transplanted QC-56 (amrubicin hydrochloride and gemcitabine); type: in vivo; conditions: single agent at maximum tolerated dose (amrubicin hydrochloride 25 mg/kg; gemcitabine 300 mg/kg i.p. 2q7d)
Procedure: as §1, §2, §3
Antitumor activity by a combination of amrubicin hydrochloride and gemcitabine was tested in the same way as Example 2, except that the maximum tolerated dose of gemcitabine was set at 300 mg/kg/day and the administration was intraperitoneally once per week in two cycles. Gemcitabine was administered by giving […] aliquot of Gemzar Injection (containing 200 mg/bial), purchased from Eli Lilly Japan K.K., as the maximum tolerated dose, the 0.8 times dose or the 0.5 times dose of gemcitabine. In addition, nude mice (80 animals) at 5 weeks of age were used.

[6] = humans, cited from earlier work; remark: listed apart in the source
[7] = rabbit chronic experimental model, compared with doxorubicin; Invest. New Drug, 15, 219–225 (1997); cited from earlier work
tumor cells = conditions: compared with amrubicin; Cancer Chemothr. Pharmacol., 30, 51–57 (1992); cited from earlier work
[8] = listed as amrubicin hydrochloride

## CC(=O)[C@]1(N)Cc2c(O)c3c(c(O)c2[C@@H](OC2CC(O)C(O)CO2)C1)C(=O)c1ccccc1C3=O (stereo partly drawn) [Amrubicin hydrochloride]
[1]; administration in 3 continuous days
  maximum tolerated dose: 50 mg/m^2 per day
[1]; once a day single dose
  maximum tolerated dose: 130 mg/m^2
[2]; expressed per body surface
  maximum tolerated dose: 75 mg/m^2
[2]
  maximum tolerated dose: 25 mg/kg
[3]
  Minimum T/C(%) Average ± SD: 37.73 ± 7.56%
[3]; [8]
  Minimum T/C(%) Average ± SD: 37.73%
[4]
  Minimum T/C(%) Average ± SD: 40.79 ± 5.92%
[4]; [8]
  Minimum T/C(%) Average ± SD: 40.79%
[5]
  Minimum T/C(%) Average ± SD: 51.06 ± 16.56%
[5]; [8]
  Minimum T/C(%) Average ± SD: 51.06%

## Nc1ccn([C@@H]2O[C@H](CO)[C@@H](O)C2(F)F)c(=O)n1 [Gemcitabine]
[2]
  maximum tolerated dose: 300 mg/kg/dose
[6]
  maximum administered dose: 1000 mg/m^2
[5]
  Minimum T/C(%) Average ± SD: 69.47 ± 26.06%
[5]; listed as gemcitabine
  Minimum T/C(%) Average ± SD: 69.47%

## CCc1c2c(nc3ccc(OC(=O)N4CCC(N5CCCCC5)CC4)cc13)-c1cc3c(c(=O)n1C2)COC(=O)[C@]3(O)CC [Irinotecan]
[6]; at intervals of 3 weeks
  maximum administered dose: 350 mg/m^2
[6]; at intervals of a week
  maximum administered dose: 150 mg/m^2

## CCC1=C[C@@H]2CN(C1)Cc1c([nH]c3ccccc13)[C@@](C(=O)OC)(c1cc3c(cc1OC)N(C)[C@H]1[C@@](O)(C(=O)OC)[C@H](OC(C)=O)[C@]4(CC)C=CCN5CC[C@]31[C@@H]54)C2 [Vinorelbine]
[2]
  maximum tolerated dose: 16 mg/kg
[6]
  maximum administered dose: 25 mg/m^2
[3]
  Minimum T/C(%) Average ± SD: 38.24 ± 12.87%
[3]; listed as vinorelbine
  Minimum T/C(%) Average ± SD: 38.24%

## COc1cc2ncnc(Nc3ccc(F)c(Cl)c3)c2cc1OCCCN1CCOCC1 [ZD 1839, 4-(3-chloro-4-fluoroanilino)-7-methoxy-6-(3-morpholinopropoxy)quinazoline]
[1]
  maximum tolerated dose: 700 mg/day
[2]
  maximum tolerated dose: 200 mg/kg

## CC(=O)[C@]1(N)Cc2c(O)c3c(c(O)c2[C@@H](O[C@H]2C[C@H](O)[C@H](O)CO2)C1)C(=O)c1ccccc1C3=O [amrubicin, (+)-(7S,9S)-9-acetyl-9-amino-7-[(2-deoxy-β-D-erythro-pentopyranosyl)oxy]-7,8,9,10-tetrahydro-6,11-dihydroxy-5,12-naphthacenedione]
[7]
  cardiac toxicity: far weaker than doxorubicin

## CC(O)[C@]1(N)Cc2c(O)c3c(c(O)c2[C@@H](O[C@H]2C[C@H](O)[C@H](O)CO2)C1)C(=O)c1ccccc1C3=O (stereo partly drawn) [amrubicinol]
Tumor cells
  inhibitory activity against growth of tumor cells: considerably stronger inhibitory activity against growth of tumor cells than that of amrubicin

## CC(=O)O[C@@]12CO[C@@H]1C[C@H](O)[C@@]1(C)C(=O)[C@H](O)C3=C(C)[C@@H](OC(=O)[C@H](O)[C@@H](NC(=O)OC(C)(C)C)c4ccccc4)C[C@@](O)([C@@H](OC(=O)c4ccccc4)[C@H]21)C3(C)C [docetaxel]
[2]
  maximum tolerated dose: 30 mg/kg/dose
[6]
  maximum administered dose: 70 mg/m^2

## CC(=O)O[C@H]1C(=O)[C@@]2(C)[C@H]([C@H](OC(=O)c3ccccc3)[C@]3(O)C[C@H](OC(=O)[C@H](O)[C@@H](NC(=O)c4ccccc4)c4ccccc4)C(C)=C1C3(C)C)[C@]1(OC(C)=O)CO[C@@H]1C[C@@H]2O [paclitaxel]
[2]
  maximum tolerated dose: 12.5 mg/kg/dose
